From patent US11427548B2 (Arvinas Operations, Inc., priority 2015, dated 2022)
Like-named read-outs stand apart in the source and are kept apart here.

Biological target: T1, Androgen Receptor (Homo sapiens, UniProt P10275)
T1 construct: endogenous in cells; host or cells: VCaP cells
T1 sequence (P10275 1-920): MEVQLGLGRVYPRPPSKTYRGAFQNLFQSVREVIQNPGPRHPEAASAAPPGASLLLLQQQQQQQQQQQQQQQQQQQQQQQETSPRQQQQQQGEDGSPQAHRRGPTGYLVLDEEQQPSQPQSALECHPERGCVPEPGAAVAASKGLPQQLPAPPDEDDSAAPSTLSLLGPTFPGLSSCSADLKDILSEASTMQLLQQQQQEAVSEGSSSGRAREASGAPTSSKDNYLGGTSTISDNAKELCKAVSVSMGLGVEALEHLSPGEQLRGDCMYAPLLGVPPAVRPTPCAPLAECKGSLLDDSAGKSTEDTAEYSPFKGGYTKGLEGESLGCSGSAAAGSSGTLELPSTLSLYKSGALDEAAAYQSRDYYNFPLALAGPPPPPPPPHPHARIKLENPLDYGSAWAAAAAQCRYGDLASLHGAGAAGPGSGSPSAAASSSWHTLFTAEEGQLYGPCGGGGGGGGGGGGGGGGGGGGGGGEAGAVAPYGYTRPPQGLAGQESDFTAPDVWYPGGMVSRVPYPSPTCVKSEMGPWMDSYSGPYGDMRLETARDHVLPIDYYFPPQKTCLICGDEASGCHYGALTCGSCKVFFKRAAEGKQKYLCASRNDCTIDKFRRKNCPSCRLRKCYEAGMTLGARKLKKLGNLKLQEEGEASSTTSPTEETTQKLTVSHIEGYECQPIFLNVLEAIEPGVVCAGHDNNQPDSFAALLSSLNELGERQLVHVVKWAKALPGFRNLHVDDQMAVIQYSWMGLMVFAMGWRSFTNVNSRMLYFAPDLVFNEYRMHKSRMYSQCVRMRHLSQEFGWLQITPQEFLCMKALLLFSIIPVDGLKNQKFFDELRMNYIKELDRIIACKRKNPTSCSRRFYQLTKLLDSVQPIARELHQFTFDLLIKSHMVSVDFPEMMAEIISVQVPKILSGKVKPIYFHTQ
Test: Androgen Receptor ELISA assay (PathScan AR ELISA) in VCaP cells: AR degradation, Dmax and DC50
Type: cell-based
Method in brief: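 VCaP cells in phenol red-free RPMI with 5% charcoal-stripped FBS were grown at least 3 days, then given compound as 7 half-log doses in 0.1% DMSO with 0.1 nM R1881 for 24 h. Lysates went into a sandwich AR ELISA with TMB read at 450 nm.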

[1] = VCaP cells; Table 35; read-out: VCaP DC50
[2] = VCaP, VCaP cells; Table 35; read-out: VCaP Dmax (%)
[3] = VCaP cells; Table 36; read-out: VCaP DC50
[4] = read-out: VCaP DC50; VCaP cells; Table 36
[5] = VCaP, VCaP cells; Table 36; read-out: VCaP Dmax (%)

Compound: Cc1nccn1-c1ccc([C@H](C)NC(=O)[C@@H]2C[C@@H](O)CN2C(=O)[C@@H](NC(=O)CNC(=O)c2ccc(Oc3ccc(C(=O)N[C@H]4C(C)(C)[C@H](Oc5ccc(C#N)c(Cl)c5)C4(C)C)cc3)cc2)C(C)(C)C)cc1 [Example 444]
- DC50 [1]: < 0.05 µM
- Dmax [2]: > 71%

Compound: CC(C)(C)[C@H](NC(=O)COCCCOCCCCOc1ccc(N2C(=S)N(c3ccc(C#N)c(C(F)(F)F)c3)C(=O)C2(C)C)cc1)C(=O)N1C[C@H](O)C[C@H]1C(=O)NCc1ccc(-c2cncs2)cc1 [Example 33, (2S,4R)-1-[(2S)-2-(2-{3-[4-(4-{3-[4-cyano-3-(trifluoromethyl)phenyl]-5,5-dimethyl-4-oxo-2-sulfanylideneimidazolidin-1-yl}phenoxy)butoxy]propoxy}acetamido)-3,3-dimethylbutanoyl]-4-hydroxy-N-{[4-(1,3-thiazol-5-yl)phenyl]methyl}pyrrolidine-2-carboxamide]
- Dmax (VCaP, read-out: VCaP Dmax (%)): 51 to 70%
- DC50 (read-out: VCaP DC50; concentration that caused 50% Androgen Receptor degradation, VCaP cells): < 0.05 µM

Compound: Cc1ncsc1-c1ccc(CNC(=O)[C@@H]2C[C@@H](O)CN2C(=O)[C@@H](NC(=O)COCCCCCOc2ccc(C(=O)N[C@H]3C(C)(C)[C@H](Oc4ccc(C#N)c(Cl)c4)C3(C)C)cc2)C(C)(C)C)cc1 [Example 151, (2S,4R)-1-[(2S)-3,3-dimethyl-2-(2-{[5-(4-{[trans-3-(3-chloro-4-cyanophenoxy)-2,2,4,4-tetramethylcyclobutyl]carbamoyl}phen-oxy)pentyl]oxy}acetamido)butanoyl]-4-hydroxy-N-{[4-(4-methyl-1,3-thiazol-5-yl)phenyl]methyl}pyrrolidine-2-carboxamide]
- Dmax (VCaP, highest percentage of Androgen Receptor degradation observed, VCaP cells (Table 32); read-out: VCaP Dmax (%)): > 71%
- DC50 (concentration that caused 50% Androgen Receptor degradation, VCaP cells (Table 32); read-out: VCaP DC50): < 0.05 µM

Compound: Cc1ncsc1-c1ccc(CNC(=O)[C@@H]2C[C@@H](O)CN2C(=O)[C@@H](NC(=O)CO[C@H](C)c2ccc(Oc3ccc(C(=O)N[C@H]4C(C)(C)[C@H](Oc5ccc(C#N)c(Cl)c5)C4(C)C)cc3)cc2)C(C)(C)C)cc1 [Example 405]
- DC50 (VCaP cells; Table 34; read-out: VCaP DC50): < 0.05 µM
- Dmax (VCaP, VCaP cells; Table 34; read-out: VCaP Dmax (%)): > 71%

Compound: COc1cc(N2C(=O)C(C)(C)N(c3ccc(OCCCCOCCCOCC(=O)N[C@H](C(=O)N4C[C@H](O)C[C@H]4C(=O)NCc4ccc(-c5scnc5C)cc4)C(C)(C)C)c(F)c3)C2=S)ccc1C#N [Example 42, (2S,4R)-1-[(2S)-2-{2-[3-(4-{4-[3-(4-cyano-3-methoxyphenyl)-5,5-dimethyl-4-oxo-2-sulfanylideneimidazolidin-1-yl]-2-fluorophenoxy}butoxy)propoxy]acetamido}-3,3-dimethylbutanoyl]-4-hydroxy-N-{[4-(4-methyl-1,3-thiazol-5-yl)phenyl]methyl}pyrrolidine-2-carboxamide]
- Dmax (VCaP, highest percentage of Androgen Receptor degradation observed, VCaP cells; read-out: VCaP Dmax (%)): 51 to 70%
- DC50 (concentration that caused 50% Androgen Receptor degradation, VCaP cells; read-out: VCaP DC50): < 0.05 µM

Compound: Cc1ncsc1-c1ccc([C@H](C)NC(=O)[C@@H]2C[C@@H](O)CN2C(=O)[C@@H](NC(=O)COCCCCCNc2ccc(C(=O)N[C@H]3C(C)(C)[C@H](Oc4ccc(C#N)c(Cl)c4)C3(C)C)cc2F)C(C)(C)C)cc1 [Example 656, (2S,4R)-1-((S)-2-(2-((5-((4-(((1r,3r)-3-(3-chloro-4-cyanophenoxy)-2,2,4,4-tetramethylcyclobutyl)carbamoyl)-2-fluorophenyl)amino)pentyl)oxy)acetamido)-3,3-dimethylbutanoyl)-4-hydroxy-N-((S)-1-(4-(4-methylthiazol-5-yl)phenyl)ethyl)pyrrolidine-2-carboxamide]
- DC50 [3]: < 0.05 µM
- Dmax (VCaP, read-out: VCaP Dmax (%), VCaP cells; Table 36): > 71%

Compound: Cc1ncsc1-c1ccc([C@H](C)NC(=O)[C@@H]2C[C@@H](O)CN2C(=O)C(NC(=O)COCCCOCC[C@@H](O)CCOc2ccc(N3C(=S)N(c4ccc(C#N)c(C(F)(F)F)c4)C(=O)C3(C)C)cc2)C(C)(C)C)cc1 (some centres unmarked) [Example 613, 1-(2-(2-(3-((5-(4-(3-(4-cyano-3-(trifluoromethyl)phenyl)-5,5-dimethyl-4-oxo-2-thioxoimidazolidin-1-yl)phenoxy)-3-hydroxypentyl)oxy)pro-poxy)acetamido)-3,3-dimethylbutanoyl)-4-hydroxy-N-(1-(4-(4-methylthiazol-5-yl)phenyl)ethyl)pyrrolidine-2-carboxamide]
- Dmax (VCaP, read-out: VCaP Dmax (%)): 26 to 50%
- DC50 [4]: > 0.501 µM

Compound: Cc1ncsc1-c1ccc([C@H](C)NC(=O)[C@@H]2C[C@@H](O)CN2C(=O)C(NC(=O)CO[C@H]2CCCC[C@@H]2N2CCN(CCOc3ccc(C(=O)N[C@H]4C(C)(C)[C@H](Oc5ccc(C#N)c(Cl)c5)C4(C)C)cc3)CC2)C(C)(C)C)cc1 (stereo partly drawn) [Example 791, (2S,4R)-1-((S)-2-(2-(((1S,2S)-2-(4-(2-(4-(((1r,3r)-3-(3-chloro-4-cyanophenoxy)-2,2,4,4-tetramethylcyclobutyl)carbamoyl)phenoxy)ethyl)piperazin-1-yl)cyclohexyl)oxy)acetamido)-3,3-dimethylbutanoyl)-4-hydroxy-N-((S)-1-(4-(4-methylthiazol-5-yl)phenyl)ethyl)pyrrolidine-2-carboxamide]
- DC50 [3]: > 0.501 µM
- Dmax [5]: < 25%

Compound: Cc1ncsc1-c1ccc([C@H](C)NC(=O)[C@@H]2C[C@@H](O)CN2C(=O)[C@@H](C(C)C)n2cc(Oc3cccc(OCCCCCOc4ccc(N5C(=S)N(c6ccc(C#N)c(C(F)(F)F)c6)C(=O)C5(C)C)cc4)c3)cn2)nc1 [Example 424]
- Dmax (VCaP, read-out: VCaP Dmax (%)): < 25%
- DC50 (read-out: VCaP DC50; VCaP cells; Table 35): > 0.501 µM

Compound: Cc1ncsc1-c1ccc(CNC(=O)[C@@H]2C[C@@H](O)CN2C(=O)[C@H](C(C)C)N2Cc3ccccc3C2=O)c(OCCN2CCN(c3ccc(C(=O)N[C@H]4C(C)(C)[C@H](Oc5ccc(C#N)c(C(F)(F)F)c5)C4(C)C)cn3)CC2)c1 [Example 733, N-((1r,3r)-3-(4-cyano-3-(trifluoromethyl)phenoxy)-2,2,4,4-tetramethylcyclobutyl)-6-(4-(2-(2-(((2S,4R)-4-hydroxy-1-((S)-3-methyl-2-(1-oxoisoindolin-2-yl)butanoyl)pyrrolidine-2-carboxamido)methyl)-5-(4-methylthiazol-5-yl)phenoxy)ethyl)piper-azin-1-yl)nicotinamide]
- DC50 [3]: < 0.05 µM
- Dmax [5]: > 71%

Compound: Cc1ncsc1-c1ccc([C@H](CN2CCCC2)NC(=O)[C@@H]2C[C@@H](O)CN2C(=O)[C@@H](NC(=O)COCCCCCOc2ccc(C(=O)N[C@H]3C(C)(C)[C@H](Oc4ccc(C#N)c(Cl)c4)C3(C)C)cc2)C(C)(C)C)cc1 [Example 465]
- DC50 [1]: < 0.05 µM
- Dmax [2]: > 71%

Compound: Cc1ncsc1-c1ccc([C@H](C)NC(=O)[C@@H]2C[C@@H](O)CN2C(=O)[C@@H](NC(=O)CN2C[C@@H](C)N(CCCc3ccc(C(=O)N[C@H]4C(C)(C)[C@H](Oc5ccc(C#N)c(Cl)c5)C4(C)C)cc3)C[C@@H]2C)C(C)(C)C)cc1 [Example 817, (2S,4R)-1-((S)-2-(2-((2S,5R)-4-(3-(4-(((1r, 3R)-3-(3-chloro-4-cyanophenoxy)-2,2,4,4-tetramethylcyclobutyl)carbamoyl)phenyl)propyl)-2,5-dimethylpiperazin-1-yl)acetamido)-3,3-dimethylbutanoyl)-4-hydroxy-N-((S)-1-(4-(4-methylthiazol-5-yl)phenyl)ethyl) pyrrolidine-2-carboxamide]
- DC50 [3]: < 0.05 µM
- Dmax (VCaP, read-out: VCaP Dmax (%)): > 71%

Compound: Cc1ncsc1-c1ccc([C@H](C)NC(=O)[C@@H]2C[C@@H](O)CN2C(=O)[C@@H](NC(=O)CN2CCO[C@@H](CN3CCO[C@@H](COc4ccc(N5C(=S)N(c6ccc(C#N)c(C(F)(F)F)c6)C(=O)C5(C)C)cc4)C3)C2)C(C)(C)C)cc1 [Example 667, (2S,4R)-1-((S)-2-(2-((S)-2-(((R)-2-((4-(3-(4-cyano-3-(trifluoromethyl)phenyl)-5,5-dimethyl-4-oxo-2-thioxoimidazolidin-1-yl)phenoxy)methyl)mor-pholino)methyl)mor-pholino)acetamido)-3,3-dimethylbutanoyl)-4-hydroxy-N-((S)-1-(4-(4-methylthiazol-5-yl)phenyl)ethyl)pyrrolidine-2-carboxamide]
- Dmax (VCaP, read-out: VCaP Dmax (%)): < 25%
- DC50 [4]: > 0.501 µM
